The record followed here is patent US8765736B2, “Benzenesulfonamide compounds and the use thereof” (Purdue Pharma L.P., priority 2007, dated 2014).

Assay [1] addresses T1, N-type calcium channel (NTCC) (Homo sapiens, UniProt Q00975).
T1 construct: endogenous in cells; host or cells: IMR32 cells (ATCC), differentiated with dibutyryl cAMP and bromodeoxyuridine
The experiment in a line: FLIPR calcium mobilization assay for N-type calcium channel. Conditions: calcium mobilization in vitro assay; differentiated IMR32 cells, 5 μM nitrendipine, 90 mM KCl. It counts as cell-based. How it is done:
Cell maintenance and differentiation. Unless noted otherwise, cell culture reagents were purchased from Mediatech of Herndon, Md. IMR32 cells (American Type Culture Collection, ATCC, Manassas, Va.) were routinely cultured in growth medium consisting of minimum essential medium containing 10% fetal bovine serum (FBS, Hyclone, Logan, Utah), 100 U/mL penicillin, 100 μg/mL streptomycin, 2 mM L-glutamine, 1 mM sodium pyruvate, and 1×MEM non-essential amino acids. 80-90% confluent flasks of cells were differentiated using the following differentiation medium: Growth medium plus 1 mM dibutyryl cyclic AMP (Sigma, St. Louis, Mo.), and 2.5 μM bromodeoxyuridine (Sigma). Cells were differentiated for 8 days by replacing differentiation medium every 2-3 days.
FLIPR Calcium Mobilization Assay for N-type Calcium Channel. One day prior to performing this assay, differentiated IMR32 cells were treated with 1× CellStripper, and seeded on poly-D-lysine-coated 96-well clear-bottom black plates (Becton Dickinson, Franklin Lakes, N.J.) at 200,000 cells/well. On the day of the assay, the cell plates were washed with IMR32 buffer (127 mM NaCl, 1 mM KCl, 2 mM MgCl2, 700 μM NaH2PO4, 5 mM CaCl2, 5 mM NaHCO3, 8 mM HEPES, 10 mM glucose, pH 7.4), then pre-stimulated with KCl and loaded as follows: 0.05 mL of IMR32 buffer, 0.05 mL of each compound tested diluted in IMR32 buffer containing 20 μM nitrendipine (Sigma), and 0.1 mL KCl dissolved in IMR32 buffer, plus Fluo-4 were added (3 μM final concentration, Molecular Probes, Eugene, Oreg.). Final test compound concentrations ranged from about 846 pM to about 17 μM, final nitrendipine concentration was 5 μM, and final KCl concentration was 90 mM. After 1 hour, the cells were washed twice with 0.05 mL of each compound tested in nitrendipine-containing IMR32 buffer (no KCl or Fluo-4), and then replaced with 0.1 mL of each compound tested in nitrendipine-containing IMR32 buffer. Plates were then transferred to a Fluorimetric Imaging Plate Reader (FLIPR^96, Molecular Devices, Inc., Sunnyvale, Calif.) for assay. The FLIPR measured basal Fluo-4 fluorescence for 315 seconds (i.e., 5 minutes and 15 seconds), then added 0.1 mL KCl agonist dissolved in IMR32 buffer and measured fluorescence for another 45 seconds. Final test compound concentrations on the cells after FLIPR read ranged from about 846 pM to about 17 μM, final nitrendipine concentration was 5 μM, and final KCl concentration was 90 mM. Data were collected over the entire time course and analyzed using Excel, Graph Pad Prism (version 3.02, Graph Pad, San Diego, Calif.), or an in-house non-linear regression analysis software.

For assay [2], the target named is T2, recombinant rat L-type calcium channel (LTCC) subunits (α1c, α2δ, and β1) (Rattus norvegicus, UniProt P22002).
T2 construct: expressed in transfected cells; α1c in pcDNA6.2DEST, β1 in pcDNA3.2DEST, α2δ in pcDNA3.1-Zeo
T2 sequence (P22002 whole entry): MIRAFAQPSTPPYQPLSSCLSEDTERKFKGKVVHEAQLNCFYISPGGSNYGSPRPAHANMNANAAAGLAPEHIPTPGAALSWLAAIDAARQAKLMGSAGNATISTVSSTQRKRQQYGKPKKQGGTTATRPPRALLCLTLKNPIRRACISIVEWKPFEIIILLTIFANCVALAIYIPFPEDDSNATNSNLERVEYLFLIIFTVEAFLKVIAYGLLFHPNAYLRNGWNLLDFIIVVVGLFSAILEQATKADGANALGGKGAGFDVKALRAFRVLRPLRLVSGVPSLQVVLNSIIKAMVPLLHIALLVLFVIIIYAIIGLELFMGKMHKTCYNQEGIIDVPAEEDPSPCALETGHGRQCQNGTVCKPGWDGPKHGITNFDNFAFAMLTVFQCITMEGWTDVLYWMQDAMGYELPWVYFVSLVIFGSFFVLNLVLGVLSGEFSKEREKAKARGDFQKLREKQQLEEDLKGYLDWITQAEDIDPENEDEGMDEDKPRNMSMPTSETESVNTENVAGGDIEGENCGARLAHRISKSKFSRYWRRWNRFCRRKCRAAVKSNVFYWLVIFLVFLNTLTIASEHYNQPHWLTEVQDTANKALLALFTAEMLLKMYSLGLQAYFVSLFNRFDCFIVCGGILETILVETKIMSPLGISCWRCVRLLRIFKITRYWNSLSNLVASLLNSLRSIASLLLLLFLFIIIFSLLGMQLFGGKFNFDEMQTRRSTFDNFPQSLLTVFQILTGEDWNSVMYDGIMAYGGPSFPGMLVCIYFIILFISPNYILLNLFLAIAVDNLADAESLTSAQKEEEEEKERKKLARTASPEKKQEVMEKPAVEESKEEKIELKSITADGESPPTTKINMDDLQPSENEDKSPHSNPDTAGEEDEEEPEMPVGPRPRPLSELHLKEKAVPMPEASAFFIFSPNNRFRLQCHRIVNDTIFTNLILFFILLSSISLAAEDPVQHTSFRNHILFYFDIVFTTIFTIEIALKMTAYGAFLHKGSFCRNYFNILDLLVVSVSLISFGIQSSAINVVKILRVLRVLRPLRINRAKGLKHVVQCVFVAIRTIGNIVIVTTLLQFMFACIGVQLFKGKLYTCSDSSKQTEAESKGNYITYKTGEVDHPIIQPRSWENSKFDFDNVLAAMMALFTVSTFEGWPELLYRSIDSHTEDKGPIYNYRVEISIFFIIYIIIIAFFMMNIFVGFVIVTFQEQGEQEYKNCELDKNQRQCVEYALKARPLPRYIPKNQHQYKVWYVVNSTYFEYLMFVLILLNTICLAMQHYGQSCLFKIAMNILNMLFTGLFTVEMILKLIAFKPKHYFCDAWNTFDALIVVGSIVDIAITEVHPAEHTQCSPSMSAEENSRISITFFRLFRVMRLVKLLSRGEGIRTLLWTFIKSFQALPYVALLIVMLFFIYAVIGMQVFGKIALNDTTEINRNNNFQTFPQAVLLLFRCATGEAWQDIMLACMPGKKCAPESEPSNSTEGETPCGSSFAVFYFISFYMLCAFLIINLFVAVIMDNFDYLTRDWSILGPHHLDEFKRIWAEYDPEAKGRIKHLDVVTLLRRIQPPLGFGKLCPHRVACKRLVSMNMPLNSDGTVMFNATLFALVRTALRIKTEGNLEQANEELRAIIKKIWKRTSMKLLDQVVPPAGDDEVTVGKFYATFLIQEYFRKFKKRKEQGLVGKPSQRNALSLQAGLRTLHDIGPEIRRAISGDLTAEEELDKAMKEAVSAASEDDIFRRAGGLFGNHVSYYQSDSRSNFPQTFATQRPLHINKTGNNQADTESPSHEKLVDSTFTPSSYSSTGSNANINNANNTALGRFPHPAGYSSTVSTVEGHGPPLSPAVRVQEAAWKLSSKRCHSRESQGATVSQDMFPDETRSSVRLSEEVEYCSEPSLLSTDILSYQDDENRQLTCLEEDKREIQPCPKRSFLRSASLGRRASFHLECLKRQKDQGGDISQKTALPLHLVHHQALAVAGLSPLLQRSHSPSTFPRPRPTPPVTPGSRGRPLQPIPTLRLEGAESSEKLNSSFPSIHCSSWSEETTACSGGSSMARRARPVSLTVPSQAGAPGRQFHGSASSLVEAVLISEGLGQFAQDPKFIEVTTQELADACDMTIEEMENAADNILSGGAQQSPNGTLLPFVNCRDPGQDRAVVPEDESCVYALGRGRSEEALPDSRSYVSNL
T2 sequence (P54290 25-944 partner): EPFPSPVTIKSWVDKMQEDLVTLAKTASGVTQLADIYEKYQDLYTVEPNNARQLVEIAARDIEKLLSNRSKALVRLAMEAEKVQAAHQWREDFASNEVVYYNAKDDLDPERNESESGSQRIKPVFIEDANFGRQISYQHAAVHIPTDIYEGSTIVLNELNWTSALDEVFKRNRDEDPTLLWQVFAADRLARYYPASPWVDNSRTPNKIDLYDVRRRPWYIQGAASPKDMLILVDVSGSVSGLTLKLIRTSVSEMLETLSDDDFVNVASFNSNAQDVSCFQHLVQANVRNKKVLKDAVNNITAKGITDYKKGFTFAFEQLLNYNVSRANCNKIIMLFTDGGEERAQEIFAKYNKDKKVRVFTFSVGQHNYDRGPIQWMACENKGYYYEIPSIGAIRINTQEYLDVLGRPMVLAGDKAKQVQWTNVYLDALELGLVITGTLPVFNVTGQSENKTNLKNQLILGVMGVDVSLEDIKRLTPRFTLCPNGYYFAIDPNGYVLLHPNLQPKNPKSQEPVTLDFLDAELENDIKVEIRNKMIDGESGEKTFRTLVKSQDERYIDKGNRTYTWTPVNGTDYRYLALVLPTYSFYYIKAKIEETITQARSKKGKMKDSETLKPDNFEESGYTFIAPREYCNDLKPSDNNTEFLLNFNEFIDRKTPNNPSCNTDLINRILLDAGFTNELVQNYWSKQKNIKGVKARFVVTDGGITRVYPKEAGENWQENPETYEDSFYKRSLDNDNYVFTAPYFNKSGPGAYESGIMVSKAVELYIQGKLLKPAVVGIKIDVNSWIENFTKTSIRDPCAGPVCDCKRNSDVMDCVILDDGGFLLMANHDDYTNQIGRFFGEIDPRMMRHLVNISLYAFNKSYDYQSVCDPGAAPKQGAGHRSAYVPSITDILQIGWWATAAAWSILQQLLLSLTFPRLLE
T2 sequence (P54290 945-1091 partner): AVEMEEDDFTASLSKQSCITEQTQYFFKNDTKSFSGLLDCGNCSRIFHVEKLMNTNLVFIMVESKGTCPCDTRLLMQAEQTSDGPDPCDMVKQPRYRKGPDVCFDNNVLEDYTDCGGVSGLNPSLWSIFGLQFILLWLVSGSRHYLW
T2 sequence (P54283 whole entry partner): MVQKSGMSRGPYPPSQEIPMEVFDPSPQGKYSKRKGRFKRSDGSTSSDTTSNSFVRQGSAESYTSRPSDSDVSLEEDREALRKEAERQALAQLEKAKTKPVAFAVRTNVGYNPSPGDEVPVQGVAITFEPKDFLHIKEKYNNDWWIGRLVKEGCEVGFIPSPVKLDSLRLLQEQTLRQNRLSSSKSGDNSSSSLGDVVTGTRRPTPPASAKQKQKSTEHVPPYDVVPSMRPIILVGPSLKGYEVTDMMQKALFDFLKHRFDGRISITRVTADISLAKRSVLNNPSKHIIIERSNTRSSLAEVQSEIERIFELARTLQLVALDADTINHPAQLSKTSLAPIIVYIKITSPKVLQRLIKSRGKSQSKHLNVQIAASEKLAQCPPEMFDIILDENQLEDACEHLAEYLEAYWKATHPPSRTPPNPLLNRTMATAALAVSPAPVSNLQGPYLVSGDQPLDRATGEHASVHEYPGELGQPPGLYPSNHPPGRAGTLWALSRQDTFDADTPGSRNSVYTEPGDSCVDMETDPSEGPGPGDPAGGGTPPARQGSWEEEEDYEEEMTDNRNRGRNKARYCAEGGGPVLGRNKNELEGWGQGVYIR
Briefly: FLIPR calcium mobilization assay for L-type calcium channel. The format is cell-based. Conditions: calcium mobilization in vitro assay; HEK293 cells stably expressing rat LTCC subunits, 90 mM KCl. How it is done: Recombinant human embryonal kidney cells (HEK293, ATCC) stably transfected with either N-type calcium channel (NTCC) subunits (α1b (SEQ ID NOs: 13 to 15), α2δ (SEQ ID Nos: 16, 17), and β3 (SEQ ID NOs:18 to 20)) or L-type calcium channel (LTCC) subunits (α1c (SEQ ID NOs:21, 22), α2δ, and β1 (SEQ ID NOs:23 to 25)) were routinely cultured in growth medium consisting of Dulbecco's Modified Eagles Medium containing 10% FBS, 100 U/mL penicillin, 100 μg/mL streptomycin, 4 mM L-glutamine, 500 μg/mL geneticin (G418), 20 μg/mL Blasticidin S (InVivogen, San Diego, Calif.) and 500 μg/mL zeocin (InVivogen).
FLIPR Calcium Mobilization Assay for L-type Calcium Channel. One day prior to performing this assay, HEK293 cells stably expressing recombinant rat L-type calcium channel (LTCC) subunits (α1c, α2δ, and β1) were trypsinized, then seeded on poly-D-lysine-coated 96-well clear-bottom black plates (Becton Dickinson, Franklin Lakes, N.J.) at 75,000 cells/well. On the day of the assay, the plates were washed with LTCC wash buffer (127 mM NaCl, 2 mM MgCl2, 700 μM NaH2PO4, 5 mM CaCl2, 5 mM NaHCO3, 8 mM HEPES, 10 mM glucose, pH 7.4), then loaded with 0.1 mL of LTCC wash buffer containing Fluo-4 (3 μM final concentration, Molecular Probes, Eugene, Oreg.). After 1 hour, the cells were washed with 0.1 mL LTCC wash buffer and resuspended in 0.05 mL LTCC assay buffer (same composition as LTCC wash buffer). Plates were then transferred to a FLIPR^96 for assay. The FLIPR measured basal Fluo-4 fluorescence for 15 seconds, then added 0.05 mL of each compound tested diluted in LTCC assay buffer at final concentrations ranging from about 846 pM to about […]. Fluo-4 fluorescence was then measured for 5 minutes. 0.1 mL KCl agonist dissolved in LTCC assay buffer was then added to the cells to produce a final concentration of 90 mM KCl, and fluorescence was measured for another 45 seconds. Data were collected over the entire time course and analyzed using Excel, Graph Pad Prism, or an in-house regression analysis software.
L-type Recombinant Cell Line Development. L-type calcium channel expressing HEK-293 cells were created in two stages. Stage 1 was created as follows. The rat α1c, and β1 cDNA expression constructs (2.5 μg each) were co-transfected into human embryonic kidney (HEK-293) cells by Lipofectamine Plus reagent (Invitrogen), as per manufacturer's instructions. 24 hours later, cells were split in limiting dilution into multiple 96-well plates in selection media containing 20 μg/mL blasticidin and 500 μg/mL geneticin, and incubated for 3 weeks at 37° C., 5% CO2, 95% humidity. Plates containing ≦1 clone per well were cultured until wells positive for single clones were confluent. Individual clones were then arrayed into columns of a destination 96-well plate, and partly split into 6-well plates for culture maintenance. Array plates were washed once with LTCC wash (or assay) buffer and cells loaded for 1 hour with 0.1 mL of LTCC buffer containing Fluo-4 (3 μM final concentration, Molecular Probes). Then they were washed twice with 0.1 mL of LTCC buffer, and replaced with 0.1 mL LTCC buffer. Plates were then transferred to a FLIPR^96 for assay. The FLIPR measured basal Fluo-4 fluorescence for 315 seconds, then added 0.1 mL KCl agonist dissolved in LTCC buffer and measured fluorescence for another 45 seconds. Final KCl concentration was 90 mM. Data were collected over the entire time course and analyzed using Excel, Graph Pad Prism, or Activity Base software. The clone with the greatest signal-to-noise ratio, best stability of response with passage number, and best adhesion to PDL precoated plates (Becton Dickinson) was expanded, characterized and used for stage 2 cell line development.
Stage 2 of L-type cell line development was carried out as follows. The rat α2δ cDNA expression construct (5 μg each) was transfected into the stage 1 L-type clonal cell line by Lipofectamine Plus reagent (Invitrogen), as per manufacturer's instructions. […]

Regarding `CC(CC(=O)NC(C)(C)C)N1CCC(N(C(C)C)S(=O)(=O)c2cccc(C(F)(F)F)c2)CC1` (centres unmarked) [Compound 25, 3-{4-[Isopropyl-(3-trifluoromethyl-benzenesulfonyl)amino]piperidin-1-yl}-N-tert-butyl-butyramide], the values for the 50% inhibitory concentration (IC50) in assay [1] and in assay [2] were 240 nM and 8.45 µM, respectively.

Take `CC(C)N(C1CCN(C2CCN(c3ccccc3)C2=O)CC1)S(=O)(=O)c1cccc(C(F)(F)F)c1` (centres unmarked) [Compound 27a, N-Isopropyl-N-[1-(2-oxo-1-phenyl-pyrrolidin-3-yl)-piperidin-4-yl]-3-trifluoromethyl-benzenesulfonamide]: the concentration for half-maximal inhibition (IC50) in assay [1] is 550 nM; in assay [2], over 20 µM.

Turning to `CC(C(=O)Nc1ccccc1)N1CCC(N(C2CC2)S(=O)(=O)c2cccc(C(F)(F)F)c2)CC1` (centres unmarked) [Compound 27b, 2-{4-[Cyclopropyl-(3-trifluoromethyl-benzenesulfonyl)-amino]piperidin-1-yl}-N-phenyl-propionamide], the IC50 in assay [1] was 390 nM; in assay [2], over 20 µM.

For the compound `CC(C)N(C1CCN(CC(=O)N2CCCCCC2)CC1)S(=O)(=O)c1cccc(C(F)(F)F)c1` [Compound 31a, N-[1-(2-Azepan-1-yl-2-oxo-ethyl)-piperidin-4-yl]-N-isopropyl-3-trifluoromethyl-benzenesulfonamide], the values for the IC50 in assay [1] and in assay [2] were 300 nM and over 20 µM, respectively.

With `CC(C)N(C1CCN(CC(=O)NC2CCCCCC2)CC1)S(=O)(=O)c1cccc(C(F)(F)F)c1` [Compound 31c, N-Cycloheptyl-2-{4-[isopropyl-(3-trifluoromethyl-benzenesulfonyl)-amino]-piperidin-1-yl}-acetamide], the IC50 in assay [1] amounted to 260 nM; in assay [2], 7.85 µM.

On to `CC(C)N(C1CCN(CC(=O)NC2CC3CCC2C3)CC1)S(=O)(=O)c1cccc(C(F)(F)F)c1` (centres unmarked) [Compound 31d, N-Bicyclo[2.2.1]hept-2-yl-2-{4-[isopropyl-(3-trifluoromethyl-benzenesulfonyl)-amino]-piperidin-1-yl}-acetamide], for which the IC50 was determined as 340 nM in assay [1] and 4.12 µM in assay [2].

As for `CC(C)N(C1CCN(CC(=O)Nc2ccc3c(c2)OC(F)(F)O3)CC1)S(=O)(=O)c1cccc(C(F)(F)F)c1` [Compound 31f, N-(2,2-Difluoro-benzo[1,3]dioxol-5-yl)-2-{4-[isopropyl-(3-trifluoromethyl-benzenesulfonyl)-amino]-piperidin-1-yl}-acetamide], the values for the IC50 in assay [1] and in assay [2] were 580 nM and over 20 µM, respectively.
